The source of these data is patent US4428950A, “(Hetarylphenoxy)-(phenylpiperazinyl)-propanols, their preparation and drugs containing these compounds” (BASF Aktiengesellschaft, priority 1981, dated 1984).

Where a name gives a salt, the structure may show the parent alone. Read-outs that look alike come from different tables or passages of the source.

In assay [1] the test system is orientation hypermotility. In words: Sedative action (orientation hypermotility induced by a new environment, mice). The class given is in vivo, mouse (NMRI, female). The note with it: for Sedative effect R.A. (relative activity): chlorpromazine = 1.00; for sedative-neuroleptic properties: according to Table 1; for effect in respect of sedation, % of that of chlorpromazine: relative to chlorpromazine. Here is the method:
The substance was administered orally to 4-8 groups each comprising 3 female NMRI mice. The orientation hypermotility induced by a new environment is determined photoelectrically, 30 minutes after administration of the substance, over a period of 30 minutes. The ED 50%, ie. the dose which produces a 50% reduction in orientation hypermotility compared to placebo-treated control animals, is determined.

Assay [2] has as its system blood pressure. In words: Hypotensive action (blood pressure in carotid artery of rats under urethane narcosis). The assay is classed as in vivo, rat (Sprague-Dawley). The note with it: for Hypotensive effect R.A. (relative activity): chlorpromazine = 1.00; for Hypotensive effect R.A. (relative activity) / ED20 / Hypotensive effect ED 20%: rat; for hypotensive action, doses compared with chlorpromazine / comparison with chlorpromazine, taking into account the hypotensive effect: in words; for ED20: read-out: Hypotensive effect ED 20%; for quotient of the sedative effective dose and the hypotensive effective dose, times more advantageous than for chlorpromazine: relative to chlorpromazine. The method, then:
The blood pressure was measured in the carotid artery. The substance was administered either by introduction into a jugular vein (as an aqueous solution, at the rate of 1 ml/kg) or intraperitoneally as a suspension in tragacanth (at the rate of 10 ml/kg). The ED 20%, ie. the dose which produces a 20% lowering of the blood pressure, was determined from the linear regression of log dose (mg/kg) and relative lowering of the blood pressure (Δ%).

In assay [3] the test system is catalepsy. In words: Cataleptic action (front extremities on 8 cm high bar, rats). The class given is in vivo, rat (Sprague-Dawley, female). Particulars: for Cataleptic effect R.A. (relative activity): chlorpromazine = 1.00; for ED50: ip, read-out: Cataleptic effect ED 50%; for effect in respect of catalepsy, % of that of chlorpromazine: relative to chlorpromazine. The method, then: 30, 60, 120 and 240 minutes after intraperitoneal administration of the substance, female Sprague-Dawley rats were placed with the front extremities on an 8 cm high bar. If, because of postural rigidity, the animals remain in this position for longer than 15 seconds, they are regarded as cataleptic.

Assay [4] concerns histamine bronchospasm. In words: Broncholytic action (histamine-induced bronchospasm, guineapigs under urethane narcosis). The assay is classed as in vivo, guineapig (Pirbright white). Particulars: guineapig. The method, then: Male or female guineapigs (Pirbright white, weight 300-500 g) under urethane narcosis (1.5 g/kg administered intraperitoneally) are subjected to artificial respiration using a tracheal cannula. Bronchospasms are caused by intravenous injection of histamine dihydrochloride (1.0-4.64 μg/kg), and an antagonistic effect on these can be brought about by prior intravenous administration of the test substance. The spasms are recorded by the method of Konzett and Rossler (Naunyn Schmiedeberg's Arch. 195 (1940), 71), via inductive pressure sensors.

The mark [5] stands for this setting: Table 2, mouse, oral, dose which reduces the motility by 50%, read-out: Sedative effect ED 50%.
Setting [6] is: Table 2, sedative ED 50% vs hypotensive ED 20% i.v.
[7] abbreviates: iv, Table 2, i.v., dose which reduces the blood pressure by 20%.
Where [8] appears, read: Table 1, rat, intraperitoneal, dose at which 50% of animals are cataleptic.
[9] abbreviates: Table 1, mouse, oral, dose producing 50% reduction in orientation hypermotility, read-out: Sedative effect ED 50%.
Setting [10] is: Table 2, sedative ED 50% vs hypotensive ED 20% i.p.
Where [11] appears, read: ip, Table 2, i.p., dose which reduces the blood pressure by 20%.

Take `COc1ccccc1N1CCN(CC(O)COc2cccc(-c3cc[nH]n3)c2)CC1` (stereo not drawn) [Example 15, 1-[3-(Pyrazol-3-yl)-phenoxy]-3-[4-(2-methoxyphenyl)-piperazin-1-yl]-propan-2-ol.3HCl]: the “doses at which sedative side-effect is observed relative to hypotensive doses” value in assay [1] (Table 2) is listed as 400-1,300 times greater. Besides, in assay [1] (Table 2, mouse, oral), the “Sedative effect R.A. (relative activity)” value turned out to be 0.08. In assay [1] (setting [5]), the ED50 was 25.1 mg/kg. Besides, in assay [2] (Table 2, i.v.), the “Hypotensive effect R.A. (relative activity)” value was determined as 1.39. Also, in assay [2] (setting [6]), the Q is 1,342. Further, in assay [2] (Table 2), the “hypotensive action, doses compared with chlorpromazine” value is on record as “at lower doses than chlorpromazine”. In addition, the ED20 in assay [2] (setting [7]) was 0.0187 mg/kg.
Consider `OC(COc1ccc(-n2ccnc2)cc1)CN1CCN(c2ccc(F)cc2)CC1` (stereo not drawn) [Example 3, 1-[4-(Imidazol-1-yl)-phenoxy]-3-[4-(4-fluorophenyl)-piperazin-1-yl]-propan-2-ol], for which the “Cataleptic effect R.A. (relative activity)” value in assay [3] (Table 1, rat, intraperitoneal) stood at 0.2. Besides, the ED50 in assay [3] (setting [8]) is 21.5 mg/kg. In assay [3], the “effect in respect of catalepsy, % of that of chlorpromazine” value worked out at 20%. In assay [1] (Table 1, mouse, oral), the “Sedative effect R.A. (relative activity)” value came out at 0.77. For the same molecule, the ED50 in assay [1] (setting [9]) was determined as 2.75 mg/kg. The sedative-neuroleptic properties entry in assay [1] (in words) is reported as “powerful sedative-neuroleptic properties”. Besides, the “effect in respect of sedation, % of that of chlorpromazine” value in assay [1] came to 77%. Moreover, in assay [2] (Table 1, i.p.), the “Hypotensive effect R.A. (relative activity)” value was 0.02. In addition, the “Q (quotient of the sedative effective dose and the hypotensive effective dose)” value in assay [2] (Table 1, hypotensive dose i.p.) was found to be 0.3. Moreover, in assay [2], the “comparison with chlorpromazine, taking into account the hypotensive effect” value is “clearly superior to chlorpromazine”; the “quotient of the sedative effective dose and the hypotensive effective dose, times more advantageous than for chlorpromazine” value is 43 times. Besides, in assay [2] (ip, Table 1, i.p., dose producing 20% lowering of blood pressure), the ED20 came to 10 mg/kg.
With `OC(COc1ccc(-n2cncn2)cc1)CN1CCN(c2ccc(F)cc2)CC1` (stereo not drawn) [Example 2, 1-[4-(1,2,4-Triazol-1-yl)-phenoxy]-3-[4-(4-fluorophenyl)-piperazin-1-yl]-propan-2-ol], in assay [3] (Table 1, rat, intraperitoneal), the “Cataleptic effect R.A. (relative activity)” value worked out at 0.43. The results for the ED50 in assay [3] (setting [8]) and in assay [1] (setting [9]) were 10 mg/kg and 2.52 mg/kg, respectively. In addition, the “effect in respect of catalepsy, % of that of chlorpromazine” value in assay [3] stood at 43%. Further, the “Sedative effect R.A. (relative activity)” value in assay [1] (Table 1, mouse, oral) amounted to 0.84. Moreover, in assay [1] (in words), the sedative-neuroleptic properties result is “powerful sedative-neuroleptic properties”. In assay [1], the “effect in respect of sedation, % of that of chlorpromazine” value was found to be 84%. Moreover, the “Hypotensive effect R.A. (relative activity)” value in assay [2] (Table 1, i.v.) was 0.08. In addition, the “Q (quotient of the sedative effective dose and the hypotensive effective dose)” value in assay [2] (Table 1, hypotensive dose i.v.) came out at 8.0. Further, the “comparison with chlorpromazine, taking into account the hypotensive effect” value in assay [2] was “clearly superior to chlorpromazine”. Besides, in assay [2] (iv, Table 1, i.v., dose producing 20% lowering of blood pressure), the ED20 amounted to 0.316 mg/kg. Also, the “quotient of the sedative effective dose and the hypotensive effective dose, times more advantageous than for chlorpromazine” value in assay [2] was 10 times.
As for `CN(C)CCCN1c2ccccc2Sc2ccc(Cl)cc21` [chlorpromazine, reference compound], the ED50 in assay [3] (Rattus norvegicus) worked out at 4.3 mg/kg. The “Cataleptic effect R.A. (relative activity)” value in assay [3] (Table 1, rat, intraperitoneal) stood at 1.0. Also, the “Sedative effect R.A. (relative activity)” value in assay [1] (Table 1, mouse, oral) is reported as 1.0; in assay [1] (Table 2, mouse, oral), 1.00. Also, the “Sedative effect ED 50%” value in assay [1] (Table 1, mouse, oral, dose producing 50% reduction in orientation hypermotility) is 2.11. For the same molecule, the “Hypotensive effect R.A. (relative activity)” value is on record as 1.0 in assay [2] (Table 1, i.p.); 1.0 in assay [2] (Table 1, i.v.); 1.00 in assay [2] (Table 2, i.p.); 1.00 in assay [2] (Table 2, i.v.). For the same molecule, the “Q (quotient of the sedative effective dose and the hypotensive effective dose)” value in assay [2] (Table 1, hypotensive dose i.v.) worked out at 81.1. The “Hypotensive effect ED 20%” value in assay [2] (Table 1, i.p., dose producing 20% lowering of blood pressure) came out at 0.164; in assay [2] (Table 1, i.v., dose producing 20% lowering of blood pressure), 0.026. The results for the Q in assay [2] (setting [10]) and in assay [2] (setting [6]) were 13 and 81, respectively. Further, the ED20 in assay [2] (setting [11]) is 0.164 mg/kg; in assay [2] (setting [7]) it was 0.026 mg/kg.
For `COc1ccccc1N1CCN(CC(O)COc2ccccc2-c2ccnc(N)n2)CC1` (stereo not drawn) [Example 5, 1-[2-(2-Aminopyrimidin-4-yl)-phenoxy]-3-[4-(2-methoxyphenyl)-piperazin-1-yl]-propan-2-ol], the “doses at which sedative side-effect is observed relative to hypotensive doses” value in assay [1] (Table 2) was 400-1,300 times greater. The “Sedative effect R.A. (relative activity)” value in assay [1] (Table 2, mouse, oral) worked out at 0.06. The ED50 in assay [1] (setting [5]) amounted to 32.8 mg/kg. For the same molecule, in assay [2] (Table 2, i.p.), the “Hypotensive effect R.A. (relative activity)” value turned out to be 2.06. This molecule had a Q in assay [2] (setting [10]) of 413. Besides, the “hypotensive action, doses compared with chlorpromazine” value in assay [2] (Table 2) was “at lower doses than chlorpromazine”. Moreover, the ED20 in assay [2] (setting [11]) was determined as 0.0795 mg/kg.
For the molecule `COc1ccccc1N1CCN(CC(O)COc2ccccc2-c2cc[nH]n2)CC1` (stereo not drawn) [Example 10, 1-[2-(Pyrazol-3-yl)-phenoxy]-3-[4-(2-methoxyphenyl)-piperazin-1-yl]-propan-2-ol.HCl], the “doses at which sedative side-effect is observed relative to hypotensive doses” value in assay [1] (Table 2) is listed as 400-1,300 times greater. Also, in assay [1] (Table 2, mouse, oral), the “Sedative effect R.A. (relative activity)” value turned out to be 0.15. Further, the ED50 in assay [1] (setting [5]) was 14.5 mg/kg. The “Hypotensive effect R.A. (relative activity)” value in assay [2] (Table 2, i.v.) is recorded as 0.79. The Q in assay [2] (setting [6]) came out at 442. The “hypotensive action, doses compared with chlorpromazine” value in assay [2] (Table 2) is “at lower doses than chlorpromazine”. In addition, in assay [2] (setting [7]), the ED20 is 0.0328 mg/kg.
For `COc1cccc(N2CCN(CC(O)COc3ccc(-n4cncn4)cc3)CC2)c1` (stereo not drawn) [Example 1, 1-[4-(1,2,4-Triazol-1-yl)-phenoxy]-3-[4-(3-methoxyphenyl)-piperazin-1-yl]-propan-2-ol], the “inhibition of histamine bronchospasm (average)” value in assay [4] (0.1 mg/kg intravenously) is listed as 87%. Further, in assay [4] (in words), the “broncholytic effect on the histamine bronchospasm” value was “strong broncholytic effect”. Moreover, in assay [1] (Mus musculus, po, read-out: sedative effect ED 50%), the ED50 amounted to 7.6 mg/kg. Also, the sedative action entry in assay [1] (in words) is recorded as “relatively slight sedative action”. Moreover, the “effect in respect of sedation, % of that of chlorpromazine” value in assay [1] is given as 28%.
